Measurements from article PMC5118228 (EJNMMI Research, 2016).

Tests used:
nontumor-bearing mice = assay type: in vivo; details: control, 4 × 0.3 nmol unlabeled DOTATATE; nontumor-bearing mice; n=8
Experimental: MTD was defined as the highest dose given to the animals allowing 100% survival with no significant weight loss >15% throughout the experiment. Nontumor-bearing mice were randomly divided into seven cohorts used to evaluate MTD, six treatments and one control (n = 8/cohort); see Table 1. […] Control mice received DOTATATE (4 × 0.3 nmol) on four consecutive days. The animals were followed for 90 days. Serum was analyzed for the biomarker neutrophil gelatinase-associated lipocalin (NGAL) using ELISA (R&D Systems, 450 nm).

patients = details: in vivo; cited from earlier work
Description: Radiolabeled somatostatin analogs are known to accumulate in the renal proximal tubules, due to their net charge, electrostatic forces, and charge distribution from metal-chelation. This can result in a high absorbed dose and subsequent renal dysfunction.

Compound	survival at 90 days post-treatment (nontumor-bearing mice)	reduction of renal uptake by co-infusion of L-lysine/L-arginine (patients)
C[C@@H](O)[C@H](NC(=O)[C@@H]1CSSC[C@H](NC(=O)[C@@H](Cc2ccccc2)NC(=O)CN2CCN(CC(=O)O)CCN(CC(=O)O)CCN(CC(=O)O)CC2)C(=O)N[C@@H](Cc2ccc(O)cc2)C(=O)N[C@H](Cc2c[nH]c3ccccc23)C(=O)N[C@@H](CCCCN)C(=O)N[C@@H]([C@@H](C)O)C(=O)N1)C(=O)O [DOTATATE]	all control animals survived	
C[C@@H](O)[C@H](NC(=O)[C@@H]1CSSC[C@H](NC(=O)[C@@H](Cc2ccccc2)NC(=O)CN2CCN(CC(=O)[O-])CCN(CC(=O)[O-])CCN(CC(=O)[O-])CC2)C(=O)N[C@@H](Cc2ccc(O)cc2)C(=O)N[C@H](Cc2c[nH]c3ccccc23)C(=O)N[C@@H](CCCCN)C(=O)N[C@@H]([C@@H](C)O)C(=O)N1)C(=O)O.[177Lu+3] [^177Lu-DOTATATE, ^177Lu-[DOTA^0,Tyr^3]octreotate]		30–50%
